The structures appear in SMILES notation. Entries after “also recorded” stand apart in the source; their conditions may differ.

Format in all cases: in vivo
What all share (details): aged male mice (21-24 months), daily subcutaneous BAPN for 4 weeks, vs saline

One assay concerns α-Klotho. Nature of the assay: BAPN daily injection in aged mice, α-Klotho immunofluorescence in chondrocytes. The procedure:
(§1) Aged male C57/BL6 mice (21-24 months; body mass) received daily subcutaneous injections of either saline, as a control, or BAPN (290 μg/μ1 in saline) for 4 weeks every day. Volume of the injection (40-80 μl) was determined based on mice body mass (m) with following protocol: 40 μl (18.45 g≤m≤23.73 g), 50 μl (23.73 g≤m≤29.00 g), 60 ul (29.00 g≤m≤34.27 g), 70 μl (34.27 g≤m≤39.55 g), 80 μl (39.55 g≤m≤44.82 g). Mice were weighed every other day beginning on day 0 and ending on day 28 to ensure proper dosage of BAPN.
Immunofluorescence analysis for tissue section and/or cell-seeded pAAm gel was performed to determine the signal intensity of type II collagen, α-Klotho, Lamin A/C, and Lamin B2 in accordance with established protocol (Sahu, et al., 2018, supra). Briefly, after a triple wash by PBS, cells were permeabilized with 0.1% triton-X (Fluka 93420) for 15 minutes, followed by a one-hour blocking step using 0.1% triton-X with 3% Bovine Serum Albumin (BSA, Sigma A7906) in PBS. The cells were then incubated with primary antibodies for overnight at 4° C. A similar process was followed for the decalcified tissue paraffin. […]
Slides were imaged using a Zeiss Observer Z1 semi-confocal microscope. […] All images for quantitative analysis in a given experiment were taken under the same imaging conditions. Fluorescence intensity was quantified using Image J

The subject of assay [1] is medial tibial cartilage of aged male C57/BL6 mice. As to the kind of experiment: BAPN daily injection in aged mice, cartilage histology (OARSI score). The protocol:
as §1
Mice knee joints and human cartilage samples were fixed in 4% paraformaldehyde overnight at 4° C., and decalcified in 20% ethylene diamine tetra acetic acid solution for 10 days. Decalcified paraffin sections (5 μm thickness) were prepared from central region of the mice knee joints in the frontal plane in accordance with the OARSI recommendation (Glasson, et al., Osteoarthritis Cartilage 18 Suppl 3, S17-23 (2010)). Decalcified paraffin sections from human cartilage specimen were also prepared. […] The OARSI scoring system, consisting of six grades and four stages on a scale from 0 (normal) to 24 (severe cartilage lesion), was used for semi-quantitative evaluation of cartilage lesion severity (Pritzker, et al., Osteoarthritis Cartilage 14, 13-29 (2006)). The most severe score was evaluated as the maximum OARSI score. […]

The test system of assay [2] is chondrocyte nuclear morphology. As to the kind of experiment: BAPN daily injection in aged mice, chondrocyte nuclear morphology (CellProfiler, PCA). The protocol: as §1
DAPI and F-actin images were obtained at 63× and 20× magnification using a Zeiss Observer Z1 semi-confocal microscope, respectively. Afterwards, image processing and morphome feature extraction were performed using CellProfiler software (v4.0, The Broad Institute) (Carpenter et al., Genome Biol 7, R100 (2006)). Fifty-three shape features of cell and nuclei were determined using the “identify primary objects” followed by the “measure object size shape” and “export to spread sheet” module. Principal Component Analysis (PCA) was performed for the data reduction identifying the principal components (PCs) that represent the differences in the cellular and nuclear morphology. To determine variables of cellular and nuclear shape contributing to PCs, loading matrix, a correlation between the original variable and PCs, were extracted.

Turning to `N#CCCN` [BAPN, β-aminopropionitrile], the “α-Klotho expression in chondrocytes” value in the assay with α-Klotho is “significantly increased α-Klotho levels; also recorded: increased α-Klotho expression; also recorded: improves α-Klotho expression”. Also, the “cartilage integrity (OARSI score)” value in assay [1] is “improves cartilage integrity”. Further, in assay [2], the “nuclear eccentricity of chondrocytes” value was “decreased nuclear eccentricity; also recorded: decreases nuclear eccentricity towards young level”.

These data come from patent publication US20210330760A1, “METHODS AND MATERIALS FOR TREATING OSTEOARTHRITIS” (University of Pittsburgh - Of the Commonwealth System of …, priority 2020, published 2021).
